Measured values published in patent US20190105340A1, “METHODS AND COMPOSITIONS FOR TARGETING VASCULAR MIMICRY” (New York Genome Center, Inc., priority 2017, published 2019).
“Also recorded” adds a separate entry of the source.

What was measured:
4T1-T^VM cells [1] = assay: in vitro VM tube assay on Matrigel; assay type: cell-based, mouse; settings: 4T1-T^VM cells treated directly, plated on Matrigel
Text: FIG. 1G are gel photographs showing the results of an in vitro Matrigel assay for VM. Only VM clones 4T1-E and 4T1-T can form tube structures when plated on Matrigel. All data from ref. 7.
Both SerpinE2 and SLPI are secreted proteins but whether their secretion is necessary for their effects on VM is unknown. To ascertain the importance of intra- vs extracellular localization of SerpinE2 and SLPI, we perform knockdown add-back experiments in which we suppress SerpinE2 or SLPI in 4T1-T^VM cells using shRNAs directed against the 3′ UTR followed by re-expression of HALO-tagged coding sequence constructs (FIG. 2) in which the signal peptide (a necessary signal for secretion) is either present or absent^8. These engineered cell lines then are tested for their ability to form VM tubes in vitro in the Matrigel assay and their ability to form VM channels and metastases in vivo by transplantation into the mammary fat-pad of Balb/C mice.
To ascertain whether regulation of VM underlies these effects of IRE1 on metastasis we turned to the in vitro VM tube assay. Inhibition of IRE1 with two independent small molecule inhibitors of its RNAse activity enhanced VM tubulogenesis while activation of IRE1 with Tunicamycin suppressed VM (FIGS. 4E and F). […]

4T1-T^VM cells [2] = assay: plating remaining treated cells in 2D (cell viability); assay type: cell-based, mouse; settings: remaining treated cells plated in 2D
Text: To ascertain whether regulation of VM underlies these effects of IRE1 on metastasis we turned to the in vitro VM tube assay. Inhibition of IRE1 with two independent small molecule inhibitors of its RNAse activity enhanced VM tubulogenesis while activation of IRE1 with Tunicamycin suppressed VM (FIGS. 4E and F).

4T1-T^VM cells [3] = assay: polyA+ RNA-Seq of treated cells with GO analysis and GSEA; assay type: cell-based, mouse
Text: Y axis is log^2 fold change mRNA levels and X axis is the negative log^10 of the corrected p-value. Red points highlight significant changes with a p value below 0.05.
To assess the role of VM as a resistance mechanism in this clinical cohort, we examined whether this Bev resistance gene signature was altered by perturbations that influence VM (FIGS. 9A-9C). […] Thus, co-targeting of VM may enhance response to anti-angiogenic cancer therapies.

[4] = low-dose, IRE1 activation in vivo; cited from earlier work
[5] = cancer patients; cited from earlier work

| Substance | VM tubulogenesis (tube formation) (4T1-T^VM cells [1]) | effects on cell viability (4T1-T^VM cells [2]) | GO analysis of genes significantly down-regulated by Tunicamycin/IRE1 activation and up-regulated by IRE1 inhibition (4T1-T^VM cells [3]; DESeq corrected p value<0.05) | GO analysis of genes significantly up-regulated by Tunicamycin/IRE1 activation and down-regulated by IRE1 inhibition (4T1-T^VM cells [3]; DESeq corrected p value<0.05) | Bev resistance gene signature (GSEA) (4T1-T^VM cells [3]; bevacizumab resistance genes of Mehta et al. in IRE1-regulated expression data) | VM gene signature (GSEA) (4T1-T^VM cells [3]; signature from VM clones vs all other clones) | toxicity in vivo [4] | clinical response [5] |
| --- | --- | --- | --- | --- | --- | --- | --- | --- |
| Tunicamycin | suppressed VM; also recorded: profoundly suppresses VM tubulogenesis | ruled out any demonstrable effects on cell viability | enriched for regulators of vasculature development and secreted ECM/ECM-affiliated genes | enrichment of terms related to ER stress | globally down-regulated; also recorded: profoundly suppresses | profoundly suppresses | without apparent toxicity | – |
| Avastin®/bevacizumab: VEGF-blocking antibody (Genentech) | – | – | – | – | – | – | – | most patients showing transient responses followed by inevitable resistance |
